Like-named read-outs stand apart in the source and are kept apart here.
Biological target: T1, jack bean α-mannosidase (Canavalia ensiformis, UniProt C0HJB3)
T1 construct: purchased Sigma–Aldrich
T1 sequence (C0HJB3 1-981): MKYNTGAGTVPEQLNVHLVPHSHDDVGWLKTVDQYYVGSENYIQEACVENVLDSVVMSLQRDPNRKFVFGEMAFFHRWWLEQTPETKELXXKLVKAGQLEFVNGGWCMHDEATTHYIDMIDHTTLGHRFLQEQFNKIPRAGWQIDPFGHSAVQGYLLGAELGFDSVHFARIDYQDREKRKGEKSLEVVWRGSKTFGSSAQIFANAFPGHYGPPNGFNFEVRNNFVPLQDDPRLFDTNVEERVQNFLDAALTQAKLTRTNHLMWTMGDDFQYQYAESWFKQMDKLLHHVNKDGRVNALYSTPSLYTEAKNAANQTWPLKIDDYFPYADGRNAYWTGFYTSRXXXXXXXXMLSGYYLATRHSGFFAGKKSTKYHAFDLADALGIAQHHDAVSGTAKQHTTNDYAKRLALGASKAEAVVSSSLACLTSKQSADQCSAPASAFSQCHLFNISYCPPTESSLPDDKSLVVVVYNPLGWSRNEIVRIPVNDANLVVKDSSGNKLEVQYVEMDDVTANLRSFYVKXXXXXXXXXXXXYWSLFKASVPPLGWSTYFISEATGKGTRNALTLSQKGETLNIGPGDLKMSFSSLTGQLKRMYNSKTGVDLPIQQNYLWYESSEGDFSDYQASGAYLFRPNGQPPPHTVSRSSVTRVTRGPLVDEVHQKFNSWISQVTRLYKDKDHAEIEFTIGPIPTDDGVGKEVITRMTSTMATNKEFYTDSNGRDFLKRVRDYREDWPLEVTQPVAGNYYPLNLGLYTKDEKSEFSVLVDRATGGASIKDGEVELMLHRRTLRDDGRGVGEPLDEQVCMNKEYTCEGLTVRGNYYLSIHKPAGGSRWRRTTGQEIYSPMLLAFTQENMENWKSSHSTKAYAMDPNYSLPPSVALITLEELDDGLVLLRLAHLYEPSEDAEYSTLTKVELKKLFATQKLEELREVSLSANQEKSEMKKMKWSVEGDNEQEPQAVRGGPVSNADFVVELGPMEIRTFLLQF
Assay: Jack bean α-mannosidase inhibition assay (Ki, Dixon method)
Type: biochemical
Details: for rp (relative inhibition potency): Ki (monovalent reference)/Ki (glycocluster), reference 11a for C6, 11b for C9 linker; for rp/n: relative inhibition potency/number of iminosugar units (valency-corrected)
Method: General procedure for inhibition assay
The p-nitrophenyl-α-D-mannopyranoside and α-mannosidase (EC 3.2.1.24, from jack bean, […]
The release of p-nitrophenol was measured continuously at 385 nm to determine initial velocities.[1] All kinetics were performed at 35 °C and started by substrate addition in a 1 mL assay medium (acetate buffer, 0.2 M, pH = 5) containing α-mannosidase (5 mU), substrate (varying concentration from Km/4 to Km value) in presence or absence of various concentrations of inhibitor. Ki […]
are only partially soluble in water, they were dissolved in DMSO for concentrated mother solutions and DMSO/buffer for diluted solutions with a final DMSO concentration under […]
2,5% in all vials. […]
1 Behr, J.-B.; Chevrier, C.; Defoin, A.; Tarnus, C.; Streith, J. Tetrahedron 2003, 59, 543–553.
2 Segel, I. H. Enzyme Kinetics; John Wiley & Sons, New York, 1975, p. 109–144.

[1] = α-mannosidase EC 3.2.1.24 (5 mU), substrate p-nitrophenyl-α-D-mannopyranoside Km/4 to Km, acetate buffer 0.2 M pH 5, 35 °C, p-nitrophenol release at 385 nm, DMSO under 2,5%, Dixon graphical method, determined in duplicate, read-out: Ki

| Structure (SMILES) | Ki [µM] | rp (relative inhibition potency) | rp/n | Ki [1] [µM] | further results |
| --- | --- | --- | --- | --- | --- |
| O=C1CN(Cc2cn(CCCCCCCCCN3C[C@H](O)[C@@H](O)[C@H](O)[C@H]3CO)nn2)C(=O)CN(Cc2cn(CCCCCCCCCN3C[C@H](O)[C@@H](O)[C@H](O)[C@H]3CO)nn2)C(=O)CN(Cc2cn(CCCCCCCCCN3C[C@H](O)[C@@H](O)[C@H](O)[C@H]3CO)nn2)C(=O)CN(Cc2cn(CCCCCCCCCN3C[C@H](O)[C@@H](O)[C@H](O)[C@H]3CO)nn2)C(=O)CN(Cc2cn(CCCCCCCCCN3C[C@H](O)[C@@H](O)[C@H](O)[C@H]3CO)nn2)C(=O)CN(Cc2cn(CCCCCCCCCN3C[C@H](O)[C@@H](O)[C@H](O)[C@H]3CO)nn2)C(=O)CN(Cc2cn(CCCCCCCCCN3C[C@H](O)[C@@H](O)[C@H](O)[C@H]3CO)nn2)C(=O)CN1Cc1cn(CCCCCCCCCN2C[C@H](O)[C@@H](O)[C@H](O)[C@H]2CO)nn1 [Compound 10d] | 8 ± 3 |  |  |  |  |
| O=C1CN(Cc2cn(CCCCCCCCCN3C[C@H](O)[C@@H](O)[C@H](O)[C@H]3CO)nn2)C(=O)CN(Cc2cn(CCCCCCCCCN3C[C@H](O)[C@@H](O)[C@H](O)[C@H]3CO)nn2)C(=O)CN(Cc2cn(CCCCCCCCCN3C[C@H](O)[C@@H](O)[C@H](O)[C@H]3CO)nn2)C(=O)CN(Cc2cn(CCCCCCCCCN3C[C@H](O)[C@@H](O)[C@H](O)[C@H]3CO)nn2)C(=O)CN(Cc2cn(CCCCCCCCCN3C[C@H](O)[C@@H](O)[C@H](O)[C@H]3CO)nn2)C(=O)CN1Cc1cn(CCCCCCCCCN2C[C@H](O)[C@@H](O)[C@H](O)[C@H]2CO)nn1 [Compound 10b] |  | 17 | 2.8 | 11 ± 1 |  |
| O=C1CN(Cc2cn(CCCCCCN3C[C@H](O)[C@@H](O)[C@H](O)[C@H]3CO)nn2)C(=O)CN(Cc2cn(CCCCCCN3C[C@H](O)[C@@H](O)[C@H](O)[C@H]3CO)nn2)C(=O)CN(Cc2cn(CCCCCCN3C[C@H](O)[C@@H](O)[C@H](O)[C@H]3CO)nn2)C(=O)CN(Cc2cn(CCCCCCN3C[C@H](O)[C@@H](O)[C@H](O)[C@H]3CO)nn2)C(=O)CN(Cc2cn(CCCCCCN3C[C@H](O)[C@@H](O)[C@H](O)[C@H]3CO)nn2)C(=O)CN(Cc2cn(CCCCCCN3C[C@H](O)[C@@H](O)[C@H](O)[C@H]3CO)nn2)C(=O)CN(Cc2cn(CCCCCCN3C[C@H](O)[C@@H](O)[C@H](O)[C@H]3CO)nn2)C(=O)CN1Cc1cn(CCCCCCN2C[C@H](O)[C@@H](O)[C@H](O)[C@H]2CO)nn1 [Compound 10c] | 21 ± 2 |  |  |  |  |
| O=C1CN(Cc2cn(CCCCCCCCCN3C[C@H](O)[C@@H](O)[C@H](O)[C@H]3CO)nn2)C(=O)CN(Cc2cn(CCCCCCCCCN3C[C@H](O)[C@@H](O)[C@H](O)[C@H]3CO)nn2)C(=O)CN(Cc2cn(CCCCCCCCCN3C[C@H](O)[C@@H](O)[C@H](O)[C@H]3CO)nn2)C(=O)CN(Cc2cn(CCCCCCCCCN3C[C@H](O)[C@@H](O)[C@H](O)[C@H]3CO)nn2)C(=O)CN(Cc2cn(CCCCCCCCCN3C[C@H](O)[C@@H](O)[C@H](O)[C@H]3CO)nn2)C(=O)CN(Cc2cn(CCCCCCCCCN3C[C@H](O)[C@@H](O)[C@H](O)[C@H]3CO)nn2)C(=O)CN(Cc2cn(CCCCCCCCCN3C[C@H](O)[C@@H](O)[C@H](O)[C@H]3CO)nn2)C(=O)CN(Cc2cn(CCCCCCCCCN3C[C@H](O)[C@@H](O)[C@H](O)[C@H]3CO)nn2)C(=O)CN(Cc2cn(CCCCCCCCCN3C[C@H](O)[C@@H](O)[C@H](O)[C@H]3CO)nn2)C(=O)CN1Cc1cn(CCCCCCCCCN2C[C@H](O)[C@@H](O)[C@H](O)[C@H]2CO)nn1 [Compound 10f] | 5 ± 1 |  |  |  |  |
| O=C1CN(Cc2cn(CCCCCCN3C[C@H](O)[C@@H](O)[C@H](O)[C@H]3CO)nn2)C(=O)CN(Cc2cn(CCCCCCN3C[C@H](O)[C@@H](O)[C@H](O)[C@H]3CO)nn2)C(=O)CN(Cc2cn(CCCCCCN3C[C@H](O)[C@@H](O)[C@H](O)[C@H]3CO)nn2)C(=O)CN(Cc2cn(CCCCCCN3C[C@H](O)[C@@H](O)[C@H](O)[C@H]3CO)nn2)C(=O)CN(Cc2cn(CCCCCCN3C[C@H](O)[C@@H](O)[C@H](O)[C@H]3CO)nn2)C(=O)CN(Cc2cn(CCCCCCN3C[C@H](O)[C@@H](O)[C@H](O)[C@H]3CO)nn2)C(=O)CN(Cc2cn(CCCCCCN3C[C@H](O)[C@@H](O)[C@H](O)[C@H]3CO)nn2)C(=O)CN(Cc2cn(CCCCCCN3C[C@H](O)[C@@H](O)[C@H](O)[C@H]3CO)nn2)C(=O)CN(Cc2cn(CCCCCCN3C[C@H](O)[C@@H](O)[C@H](O)[C@H]3CO)nn2)C(=O)CN1Cc1cn(CCCCCCN2C[C@H](O)[C@@H](O)[C@H](O)[C@H]2CO)nn1 [Compound 10e] |  | 21 | 2.1 |  | Ki (as E1 but single determination of Ki without duplicate): 15 ± 10 µM |
| O=C1CN(Cc2cn(CCCCCCN3C[C@H](O)[C@@H](O)[C@H](O)[C@H]3CO)nn2)C(=O)CN(Cc2cn(CCCCCCN3C[C@H](O)[C@@H](O)[C@H](O)[C@H]3CO)nn2)C(=O)CN(Cc2cn(CCCCCCN3C[C@H](O)[C@@H](O)[C@H](O)[C@H]3CO)nn2)C(=O)CN(Cc2cn(CCCCCCN3C[C@H](O)[C@@H](O)[C@H](O)[C@H]3CO)nn2)C(=O)CN(Cc2cn(CCCCCCN3C[C@H](O)[C@@H](O)[C@H](O)[C@H]3CO)nn2)C(=O)CN1Cc1cn(CCCCCCN2C[C@H](O)[C@@H](O)[C@H](O)[C@H]2CO)nn1 [Compound 10a] |  |  |  | 65 ± 24 |  |
